Where two headings read alike, the source gives them in different places.
How the values were obtained:
Type in all cases: cell-based
L1210 MTX = experiment: MTX and cisplatin cross-resistance test, 24 hour exposure
L1210S = experiment: cells; details: read-out: T.C.D.50
L1210DDP = experiment: cells

Row | Structure (SMILES) | resistance of L1210 MTX compared to L1210S (L1210 MTX) [times] | IC50 (L1210 MTX; Mus musculus, L1210 MTX, characterisation of resistant line, read-out: T.C.D.50) [nM] | IC50 (L1210S) [nM] | IC50 (L1210S; parental L1210S) [nM] | resistance of L1210DDP compared to L1210S (L1210DDP) [fold] | IC50 (L1210DDP; read-out: T.C.D.50) [nM]
1 | CN(Cc1cnc2nc(N)nc(N)c2n1)c1ccc(C(=O)N[C@@H](CCC(=O)O)C(=O)O)cc1 [MTX, methotrexate, reference compound] | 100 | 500 | 5 | – | – | –
2 | N.N.[Cl][Pt][Cl] [cisplatin, cis-diamminedichloroplatinum (II), reference compound] | – | – | – | 1500 | 20 | 30000

From US4740501A (priority 1985, dated 1988)
